{"source": "paper PMC4316792", "about": "“The dehydrogenase region of the NADPH oxidase component Nox2 acts as a protein disulfide isomerase (PDI) resembling PDIA3 with a role in the binding of the activator protein p67^phox” (Frontiers in Chemistry, 2015)", "key": {"NADPH oxidase": {"tested_on": "NADPH oxidase", "parameters": "method as in 8 sources, one per row (each row's own in cited_ref): ref Shpungin et al., [1989] ||| ref Bellavite et al., [1983]; Gabig and Lefker, [1984] ||| ref Pick et al., [1987] ||| ref Le Cabec and Maridonneau-Parini, [1995] ||| ref Nishida et al., [2005] ||| ...", "conditions": "cited from earlier work"}, "p67^phox(1–212)": {"tested_on": "p67^phox(1–212)", "assay": "Effect of H2O2 on binding of p67phox(1–212) to Nox2 peptide 24", "conditions": "p67^phox(1–212) 1.5 μM, H2O2 10 mM required (0.1, 1, 10 mM tested), 2 h at 4°C; three experiments (Figure 2C)", "method": "This assay was used to assess the binding of p67^phox, in solution, to surface-attached synthetic Nox2 peptides. The procedure is a modified version of that described before (Morozov et al., [1998]; Dahan et al., [2002]). A brief description of the procedure is presented here. Synthetic Nox2 peptides, with a biotin tag at either the N- or C-terminus, were diluted to a concentration of 1 μM in PBS supplemented with 1% casein. 200 μl/well volumes were added to streptavidin-coated 96 well plates (BioBind Assembly, streptavidin-coated, Cat. No. 95029263, Thermo Fisher Scientific) and the plates incubated for 1 h at room temperature, the well contents being mixed on an orbital shaker. […] Bound peroxidase was quantified as described for the protein—protein binding assay.\nFigure 2 Treatment of p67^phox with N-ethylmaleimide (NEM), diamide, or H2O2 reverses the enhanced binding to Nox2 peptides containing an intramolecular disulfide bond. p67^phox(1–526) (1.5 μM) was incubated with NEM (0.1 mM) (A) or diamide (5 mM) (B), for 1 h at room temperature. p67^phox(1–212) (1.5 μM) was exposed to H2O2 (0.1, 1, or 10 mM) for 2 h at 4°C (C). […] The binding of treated and untreated p67^phox, in solution, to surface-attached Nox2 peptide 24 (357–371), with an N-terminal biotin tag, was measured. […]"}, "Nox4": {"tested_on": "Nox4", "parameters": "method as in Serrander et al., [2007]", "conditions": "ref Serrander et al., [2007]; cited from earlier work"}, "[1]": {"target": "NADPH oxidase (macrophage membrane liposomes, cytochrome b558) (Cavia porcellus, UniProt H0UXC6)", "format": "biochemical, guinea pig"}, "[2]": {"tested_on": "NADPH oxidase in intact phagocytes / neutrophils", "parameters": "method as in 3 sources, one per row (each row's own in cited_ref): ref Cohen and Chovaniec, [1978]; Yamashita et al., [1984] ||| ref Le Cabec and Maridonneau-Parini, [1995] ||| ref Tsunawaki et al., [2004]", "conditions": "cited from earlier work"}, "PDIA3": {"tested_on": "PDIA3", "parameters": "method as in Jasuja et al., [2012]", "conditions": "ref Jasuja et al., [2012]; cited from earlier work"}, "PDIA1": {"tested_on": "PDIA1", "conditions": "ref Xu et al., [2012]; cited from earlier work", "excerpt": "Isomerization by PDI also requires the b′ domain (Ellgaard and Ruddock, [2005]) and, thus, an interact ..."}, "PDI": {"tested_on": "PDI", "parameters": "method as in 2 sources, one per row (each row's own in cited_ref): ref Gallina et al., [2002]; Raturi et al., [2005] ||| ref Dickerhof et al., [2011]", "conditions": "ref Dickerhof et al., [2011]; cited from earlier work"}}, "note": "“Also recorded” adds a separate entry of the source.", "data": [{"molecule": "OO", "note": "[H2O2]", "values": [{"measurement": "effect of exposure of phagocyte membranes on oxidase assembly", "setting": "NADPH oxidase; without effect on the assembled complex, ref Ostuni et al., [2010]", "value": "inhibits oxidase assembly"}, {"measurement": "effect of H2O2 treatment of p67phox on binding to peptide 24 in the disulfide form", "setting": "p67^phox(1–212)", "value": "markedly reduced"}]}, {"molecule": "CN1C(=O)[C@]23CC4=CC=C[C@H](O)[C@H]4N2C(=O)[C@@]1(CO)SS3", "note": "[gliotoxin]", "values": [{"measurement": "effect on Nox4", "setting": "Nox4", "value": "did not affect"}, {"measurement": "inhibition of oxidase activation in vitro", "setting": "NADPH oxidase", "value": "marked inhibitory effect; also recorded: inhibit oxidase activation"}, {"measurement": "IC50, NADPH oxidase activation", "setting": "[1]", "value": "could not be determined"}, {"measurement": "inhibition of oxidase activation, in words", "setting": "[1]", "value": "poor inhibitor"}, {"measurement": "inhibition of oxidase activation in neutrophils", "setting": "[2]", "value": "inhibit oxidase activation"}]}, {"molecule": "C[C@@H]1O[C@@H](OC[C@H]2O[C@@H](Oc3c(-c4ccc(O)c(O)c4)oc4cc(O)cc(O)c4c3=O)[C@H](O)[C@@H](O)[C@@H]2O)[C@H](O)[C@H](O)[C@H]1O", "note": "[rutin]", "values": [{"measurement": "inhibition of oxidase activation, in words", "setting": "[1]", "value": "Lack of an inhibitory effect"}, {"measurement": "inhibitory effect on PDIA3", "setting": "PDIA3", "value": "lack an inhibitory effect"}]}, {"molecule": "PACMA 31", "values": [{"measurement": "inhibition of oxidase activation, in words", "setting": "[1]", "value": "Lack of an inhibitory effect"}, {"measurement": "specificity for PDIA1", "setting": "PDIA1", "value": "exquisite specificity"}]}, {"molecule": "bacitracin A", "values": [{"measurement": "inhibitory potency on PDI", "setting": "PDI", "value": "low inhibitory potency"}]}]}
